# Source: ChEMBL document CHEMBL3259715, “Shuttle-cargo fusion molecules of transport peptides and the hD2/3 receptor antagonist fallypride: a feasible approach to preserve ligand-receptor binding?” (J Med Chem, 2014)
# Peptide text beside a SMILES is read from it. * marks the point of attachment. X1 = C=CCN1CCC[C@H]1CNC(=O)c1cc(CCCSC2CC(=O)N(CCCCCC(=O)*)C2=O)cc(OC)c1OC
# Target: D(2) dopamine receptor (Homo sapiens, UniProt P14416)
# Experiment: Displacement of [3H]spiperone from human D2 receptor transfected in HEK cells
# Assay type: cell-based, HEK293
# D(2) dopamine receptor, sequence (P14416 whole entry): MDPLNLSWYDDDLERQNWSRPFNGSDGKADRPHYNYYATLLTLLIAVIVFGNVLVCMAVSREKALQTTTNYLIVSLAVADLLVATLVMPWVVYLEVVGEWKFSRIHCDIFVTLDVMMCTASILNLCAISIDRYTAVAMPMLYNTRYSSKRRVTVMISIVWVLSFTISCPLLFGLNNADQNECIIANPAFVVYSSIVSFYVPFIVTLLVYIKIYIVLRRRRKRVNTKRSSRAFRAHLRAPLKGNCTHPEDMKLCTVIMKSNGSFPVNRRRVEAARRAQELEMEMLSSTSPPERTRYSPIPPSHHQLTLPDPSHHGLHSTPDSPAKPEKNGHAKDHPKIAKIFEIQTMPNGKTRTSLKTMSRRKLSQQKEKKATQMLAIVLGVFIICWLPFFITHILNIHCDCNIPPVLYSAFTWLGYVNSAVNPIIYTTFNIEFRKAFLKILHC
row,Molecule,Ki
1,C=CCN1CCC[C@H]1CNC(=O)c1cc(CCCSC2CC(=O)N(CCCCCC(=O)NCC(=O)N[C@@H](CCCNC(=N)N)C(=O)N[C@@H](CCCCN)C(=O)N[C@@H](CCCCN)C(=O)N[C@@H](CCCNC(=N)N)C(=O)N[C@@H](CCCNC(=N)N)C(=O)N[C@@H](CCC(N)=O)C(=O)N[C@@H](CCCNC(=N)N)C(=O)N[C@@H](CCCNC(=N)N)C(=O)N[C@@H](CCCNC(=N)N)C(=O)N3CCC[C@H]3C(=O)N3CCC[C@H]3C(=O)N[C@@H](CCC(N)=O)C(=O)O)C2=O)cc(OC)c1OC (some centres undefined),21.5 nM
2,C=CCN1CCC[C@H]1CNC(=O)c1cc(CCCSC2CC(=O)N(CCCCCC(=O)N[C@@H](CCCNC(=N)N)C(=O)N[C@@H](CCCCN)C(=O)N[C@@H](CCCCN)C(=O)N[C@@H](CCCNC(=N)N)C(=O)N[C@@H](CCCNC(=N)N)C(=O)N[C@@H](CCC(N)=O)C(=O)N[C@@H](CCCNC(=N)N)C(=O)N[C@@H](CCCNC(=N)N)C(=O)N[C@@H](CCCNC(=N)N)C(=O)O)C2=O)cc(OC)c1OC (some centres undefined),9.69 nM
3,C=CCN1CCC[C@H]1CNC(=O)c1cc(CCCSC2CC(=O)N(CCCCCC(=O)N[C@@H](Cc3cnc[nH]3)C(=O)N[C@@H](C)C(=O)N[C@H](C(=O)N[C@@H](Cc3ccc(O)cc3)C(=O)N3CCC[C@H]3C(=O)N[C@@H](CCCNC(=N)N)C(=O)N[C@@H](Cc3cnc[nH]3)C(=O)O)[C@@H](C)CC)C2=O)cc(OC)c1OC (some centres undefined),10.3 nM
4,C=CCN1CCC[C@H]1CNC(=O)c1cc(CCCSC2CC(=O)N(CCCCCC(=O)N[C@@H](CCCNC(=N)N)C(=O)N[C@@H](CCC(N)=O)C(=O)N[C@H](C(=O)N[C@@H](CCCCN)C(=O)N[C@H](C(=O)N[C@@H](Cc3c[nH]c4ccccc34)C(=O)N[C@@H](Cc3ccccc3)C(=O)N[C@@H](CCC(N)=O)C(=O)N[C@@H](CC(N)=O)C(=O)N[C@@H](CCCNC(=N)N)C(=O)N[C@@H](CCCNC(=N)N)C(=O)N[C@@H](CCSC)C(=O)N[C@@H](CCCCN)C(=O)N[C@@H](Cc3c[nH]c4ccccc34)C(=O)N[C@@H](CCCCN)C(=O)N[C@@H](CCCCN)C(=O)O)[C@@H](C)CC)[C@@H](C)CC)C2=O)cc(OC)c1OC (some centres undefined),8.14 nM
5,C=CCN1CCC[C@H]1CNC(=O)c1cc(CCCSC2CC(=O)N(CCCCCC(=O)NCCCC(=O)N[C@@H](Cc3cnc[nH]3)C(=O)N[C@@H](C)C(=O)N[C@H](C(=O)N[C@@H](Cc3ccc(O)cc3)C(=O)N3CCC[C@H]3C(=O)N[C@@H](CCCNC(=N)N)C(=O)N[C@@H](Cc3cnc[nH]3)C(=O)O)[C@@H](C)CC)C2=O)cc(OC)c1OC (some centres undefined),28.4 nM
6,C=CCN1CCC[C@H]1CNC(=O)c1cc(CCCSC2CC(=O)N(CCCCCC(=O)NCCOCCOCC(=O)N[C@@H](Cc3cnc[nH]3)C(=O)N[C@@H](C)C(=O)N[C@H](C(=O)N[C@@H](Cc3ccc(O)cc3)C(=O)N3CCC[C@H]3C(=O)N[C@@H](CCCNC(=N)N)C(=O)N[C@@H](Cc3cnc[nH]3)C(=O)O)[C@@H](C)CC)C2=O)cc(OC)c1OC (some centres undefined),30.3 nM
7,C=CCN1CCC[C@H]1CNC(=O)c1cc(CCCSC2CC(=O)N(CCCCCC(=O)NCCOCCOCCOCCOCCOCCOCCC(=O)N[C@@H](Cc3cnc[nH]3)C(=O)N[C@@H](C)C(=O)N[C@H](C(=O)N[C@@H](Cc3ccc(O)cc3)C(=O)N3CCC[C@H]3C(=O)N[C@@H](CCCNC(=N)N)C(=O)N[C@@H](Cc3cnc[nH]3)C(=O)O)[C@@H](C)CC)C2=O)cc(OC)c1OC (some centres undefined),27.4 nM
8,C=CCN1CCC[C@H]1CNC(=O)c1cc(CCCSC2CC(=O)N(CCCCCC(=O)NCCOCCOCCOCCOCCOCCOCCOCCOCCC(=O)N[C@@H](Cc3cnc[nH]3)C(=O)N[C@@H](C)C(=O)N[C@H](C(=O)N[C@@H](Cc3ccc(O)cc3)C(=O)N3CCC[C@H]3C(=O)N[C@@H](CCCNC(=N)N)C(=O)N[C@@H](Cc3cnc[nH]3)C(=O)O)[C@@H](C)CC)C2=O)cc(OC)c1OC (some centres undefined),53.9 nM
9,C=CCN1CCC[C@H]1CNC(=O)c1cc(CCCSC2CC(=O)N(CCCCCC(=O)NCCOCCOCCOCCOCCOCCOCCOCCOCCOCCOCCOCCOCCC(=O)N[C@@H](Cc3cnc[nH]3)C(=O)N[C@@H](C)C(=O)N[C@H](C(=O)N[C@@H](Cc3ccc(O)cc3)C(=O)N3CCC[C@H]3C(=O)N[C@@H](CCCNC(=N)N)C(=O)N[C@@H](Cc3cnc[nH]3)C(=O)O)[C@@H](C)CC)C2=O)cc(OC)c1OC (some centres undefined),25.3 nM
10,C=CCN1CCC[C@H]1CNC(=O)c1cc(CCCSC2CC(=O)N(CCCCCC(=O)NCCOCCOCCOCCOCCC(=O)N[C@H](C(=O)N[C@@H](Cc3ccccc3)C(=O)N[C@@H](Cc3ccccc3)C(=O)N[C@@H](Cc3ccc(O)cc3)C(=O)NCC(=O)NCC(=O)N[C@@H](CO)C(=O)N[C@@H](CCCNC(=N)N)C(=O)NCC(=O)N[C@@H](CCCCNC(=O)CN3CCN(CC(=O)O)CCN(CC(=O)O)CCN(CC(=O)O)CC3)C(=O)N[C@@H](CCCNC(=N)N)C(=O)N[C@@H](CC(N)=O)C(=O)N[C@@H](CC(N)=O)C(=O)N[C@@H](Cc3ccccc3)C(=O)N[C@@H](CCCCN)C(=O)N[C@H](C(=O)N[C@@H](CCC(=O)O)C(=O)N[C@@H](CCC(=O)O)C(=O)N[C@@H](Cc3ccc(O)cc3)C(=O)O)[C@@H](C)O)[C@@H](C)O)C2=O)cc(OC)c1OC (some centres undefined),26.1 nM
11,C=CCN1CCC[C@H]1CNC(=O)c1cc(CCCSC2CC(=O)N(CCCCCC(=O)NCCOCCOCCOCCOCCOCCOCCC(=O)N[C@H](C(=O)N[C@@H](Cc3ccccc3)C(=O)N[C@@H](Cc3ccccc3)C(=O)N[C@@H](Cc3ccc(O)cc3)C(=O)NCC(=O)NCC(=O)N[C@@H](CO)C(=O)N[C@@H](CCCNC(=N)N)C(=O)NCC(=O)N[C@@H](CCCCNC(=O)CN3CCN(CC(=O)O)CCN(CC(=O)O)CCN(CC(=O)O)CC3)C(=O)N[C@@H](CCCNC(=N)N)C(=O)N[C@@H](CC(N)=O)C(=O)N[C@@H](CC(N)=O)C(=O)N[C@@H](Cc3ccccc3)C(=O)N[C@@H](CCCCN)C(=O)N[C@H](C(=O)N[C@@H](CCC(=O)O)C(=O)N[C@@H](CCC(=O)O)C(=O)N[C@@H](Cc3ccc(O)cc3)C(=O)O)[C@@H](C)O)[C@@H](C)O)C2=O)cc(OC)c1OC (some centres undefined),35.8 nM
12,C=CCN1CCC[C@H]1CNC(=O)c1cc(CCCSC2CC(=O)N(CCCCCC(=O)NCCOCCOCCOCCOCCOCCOCCOCCOCCC(=O)N[C@H](C(=O)N[C@@H](Cc3ccccc3)C(=O)N[C@@H](Cc3ccccc3)C(=O)N[C@@H](Cc3ccc(O)cc3)C(=O)NCC(=O)NCC(=O)N[C@@H](CO)C(=O)N[C@@H](CCCNC(=N)N)C(=O)NCC(=O)N[C@@H](CCCCNC(=O)CN3CCN(CC(=O)O)CCN(CC(=O)O)CCN(CC(=O)O)CC3)C(=O)N[C@@H](CCCNC(=N)N)C(=O)N[C@@H](CC(N)=O)C(=O)N[C@@H](CC(N)=O)C(=O)N[C@@H](Cc3ccccc3)C(=O)N[C@@H](CCCCN)C(=O)N[C@H](C(=O)N[C@@H](CCC(=O)O)C(=O)N[C@@H](CCC(=O)O)C(=O)N[C@@H](Cc3ccc(O)cc3)C(=O)O)[C@@H](C)O)[C@@H](C)O)C2=O)cc(OC)c1OC (some centres undefined),42.8 nM
13,C=CCN1CCC[C@H]1CNC(=O)c1cc(CCCSC2CC(=O)N(CCCCCC(=O)N[C@H](C(=O)N[C@@H](Cc3ccccc3)C(=O)N[C@@H](Cc3ccccc3)C(=O)N[C@@H](Cc3ccc(O)cc3)C(=O)NCC(=O)NCC(=O)N[C@@H](CO)C(=O)N[C@@H](CCCNC(=N)N)C(=O)NCC(=O)N[C@@H](CCCCNC(=O)CN3CCN(CC(=O)O)CCN(CC(=O)O)CCN(CC(=O)O)CC3)C(=O)N[C@@H](CCCNC(=N)N)C(=O)N[C@@H](CC(N)=O)C(=O)N[C@@H](CC(N)=O)C(=O)N[C@@H](Cc3ccccc3)C(=O)N[C@@H](CCCC[n+]3c(C)cc(/C=C/C=C/c4ccc(N(C)C)cc4)cc3C)C(=O)N[C@H](C(=O)N[C@@H](CCC(=O)O)C(=O)N[C@@H](CCC(=O)O)C(=O)N[C@@H](Cc3ccc(O)cc3)C(=O)O)[C@@H](C)O)[C@@H](C)O)C2=O)cc(OC)c1OC (some centres undefined),64.2 nM
14,C=CCN1CCC[C@H]1CNC(=O)c1cc(CCCSC2CC(=O)N(CCCCCC(=O)NCCOCCOCCOCCOCCC(N)=O)C2=O)cc(OC)c1OC (some centres undefined),7.31 nM
15,C=CCN1CCC[C@H]1CNC(=O)c1cc(CCCF)ccc1OC,0.63 nM
16,C=CCN1CCC[C@H]1CNC(=O)c1cc(CCCSC2CC(=O)N(CCCCCC(=O)NCC(=O)N[C@@H](Cc3c[nH]c4ccccc34)C(=O)N[C@H](C(=O)N[C@@H](CC(C)C)C(=O)N[C@@H](CC(=O)O)C(=O)N[C@@H](CO)C(=O)N[C@@H](C)C(=O)NCC(=O)N[C@@H](Cc3ccc(O)cc3)C(=O)N[C@@H](CC(C)C)C(=O)N[C@@H](CC(C)C)C(=O)NCC(=O)N[C@@H](CCCCN)C(=O)N[C@H](C(=O)N[C@@H](CC(=O)O)C(=O)N[C@@H](CC(C)C)C(=O)N[C@@H](CCCCN)C(=O)N[C@@H](C)C(=O)N[C@@H](CC(C)C)C(=O)N[C@@H](C)C(=O)N[C@@H](C)C(=O)N[C@@H](CC(C)C)C(=O)N[C@@H](C)C(=O)N[C@@H](CCCCN)C(=O)N[C@@H](CCCCN)C(=O)N[C@H](C(=O)N[C@@H](CC(C)C)C(=O)O)[C@@H](C)CC)[C@@H](C)CC)[C@@H](C)O)C2=O)cc(OC)c1OC (some centres undefined) (X1-GWTLDSAGYLLGKIDLKALAALAKKIL-OH),12.3 nM
17,C=CCN1CCC[C@H]1CNC(=O)c1cc(CCCSC2CC(=O)N(CCCCCC(=O)N[C@H](C(=O)N[C@@H](Cc3cnc[nH]3)C(=O)N[C@@H](CCCNC(=N)N)C(=O)N3CCC[C@H]3C(=O)N3CCC[C@H]3C(=O)N[C@@H](CCSC)C(=O)N[C@@H](Cc3c[nH]c4ccccc34)C(=O)N[C@@H](CO)C(=O)N3CCC[C@H]3C(=O)N[C@H](C(=O)N[C@@H](Cc3c[nH]c4ccccc34)C(=O)N3CCC[C@H]3C(=O)O)C(C)C)[C@@H](C)O)C2=O)cc(OC)c1OC (some centres undefined) (X1-THRPPMWSPVWP-OH),27.3 nM
18,C=CCN1CCC[C@H]1CNC(=O)c1cc(CCCSC2CC(=O)N(CCCCCC(=O)N[C@H](C(=O)N[C@@H](CCC(N)=O)C(=O)N[C@@H](CCCNC(=N)N)C(=O)N[C@@H](CCCCN)C(=O)N[C@@H](CCCNC(=N)N)C(=O)N[C@@H](CCC(N)=O)C(=O)N[C@@H](CCCCN)C(=O)N[C@@H](CC(C)C)C(=O)N[C@@H](CCSC)C(=O)N3CCC[C@H]3C(=O)O)C(C)C)C2=O)cc(OC)c1OC (some centres undefined) (X1-VQRKRQKLMP-OH),13 nM
19,H-VQRKRQKLMP-OH,> 1000 nM
